Publication PMC6763016 (PLoS ONE, 2019)

Molecular target: T1, 5-HT1A autoreceptor (5-HT1AAR) of Tph2-/- mouse dorsal raphe serotonergic neurons (Mus musculus, UniProt Q64264)
T1 construct: gene Htr1a
T1 sequence (Q64264 1-421): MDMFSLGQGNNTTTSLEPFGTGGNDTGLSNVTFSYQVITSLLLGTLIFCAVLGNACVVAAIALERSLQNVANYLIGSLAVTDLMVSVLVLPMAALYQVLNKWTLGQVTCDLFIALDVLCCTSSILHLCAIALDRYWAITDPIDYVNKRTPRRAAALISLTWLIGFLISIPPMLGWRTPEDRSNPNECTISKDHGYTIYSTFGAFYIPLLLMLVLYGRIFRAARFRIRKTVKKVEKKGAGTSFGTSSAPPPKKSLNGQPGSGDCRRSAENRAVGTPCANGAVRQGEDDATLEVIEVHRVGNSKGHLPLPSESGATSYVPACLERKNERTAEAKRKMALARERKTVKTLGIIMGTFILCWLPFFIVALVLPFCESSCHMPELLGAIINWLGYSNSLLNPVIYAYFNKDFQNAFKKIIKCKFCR
Conditions: agonist; 10 μM phenylephrine and synaptic blockers present; 34-36 °C; four of nine neurons (those silenced by 1 μM)

O=c1n(CCCN2CCN(c3cccc(Cl)c3)CC2)nc2ccccn12 [Trazodone]
% decrease of firing at 1 μM: 96.1 ± 7.3%
